Results: patent US20250144067A1, “PERSONALIZED STARVATION THERAPY FOR CANCER” (Faeth Therapeutics, Inc., priority 2021, published 2025)
Counter-ions that a name gives are not always drawn. Ends that are not written are not given here.

Legend:
[1] = tested on: NCI-H292 lung cancer cells; experiment: FDA drug screening, complete media vs cholesterol-free media without statin (TABLE 1); format: cell-based, human
[2] = tested on: NCI-H292 lung cancer cells; experiment: FDA drug screening, complete media vs cholesterol-free media with simvastatin (TABLE 2); format: cell-based, human; conditions: for Cholesterol-free media + simvastatin (0.04 μM) / Complete Media: NCI-H292 cells
[3] = Complete minus Cholesterol-free, […]
[4] = NCI-H292 cells, cholesterol-free media without statin
[5] = FDA drug library screen, cholesterol-free media with simvastatin 0.04 μM
[6] = FDA drug library screen, complete media
[7] = complete media vs cholesterol-free media + simvastatin (0.04 μM), […]
[8] = Complete minus Cholesterol-free, >0 enhanced anti-cancer activity, about 0 neutral, <0 antagonist
[9] = cholesterol-free media with simvastatin 0.04 μM, cell growth value in FDA drug screen
[10] = complete media, cell growth value in FDA drug screen
[11] = complete media minus cholesterol-free media + simvastatin, >0 enhanced anti-cancer activity, about 0 neutral, <0 antagonist
[12] = Complete minus Cholesterol-free, greater than 0 enhanced anti-cancer activity, about 0 neutral, below 0 antagonists
[13] = NCI-H292 cells in complete media
[14] = FDA library drug in cholesterol-free media with simvastatin 0.04 μM
[15] = FDA library drug in complete media
[16] = complete media vs cholesterol-free media + simvastatin (0.04 μM), >0 enhanced anti-cancer activity, about 0 neutral, <0 antagonist
[17] = NCI-H292 cells, cholesterol-free media without statin, FDA drug library screen
[18] = NCI-H292 cells, complete media, FDA drug library screen
[19] = complete vs cholesterol-free media, […]
[20] = drug in cholesterol-free media with simvastatin 0.04 μM
[21] = NCI-H292 cells, FDA drug library screen, complete media

Cl.NCCCC[C@H](N)C(=O)O [L-Lysine hydrochloride]
Difference [1, 3]: −0.25 | Cholesterol-free [1, 4]: 1.006 | Complete ([1]; NCI-H292 cells, complete media): 0.7519 | Cholesterol-free media + simvastatin (0.04 μM) [2, 5]: 1.192 | Complete Media [2, 6]: 1.079 | Difference [2, 7]: −0.11

CCOCCn1c(N2CCCN(C)CC2)nc2ccccc21 [Emedastine]
Difference [1, 8]: −0.27 | Cholesterol-free [1, 4]: 0.9896 | Complete ([1]; NCI-H292 cells, complete media): 0.7182 | Cholesterol-free media + simvastatin (0.04 μM) [2, 9]: 0.8891 | Complete Media [2, 10]: 0.9093 | Difference [2, 11]: 0.02

CONC(=O)Nc1ccc(-c2sc3c(c2CN(C)C)c(=O)n(-c2ccc(OC)nn2)c(=O)n3Cc2c(F)cccc2F)cc1 [Relugolix]
Difference [1, 12]: −0.64 | Complete [1, 13]: 0.978 | Cholesterol-free media + simvastatin (0.04 μM) [2, 14]: 1.344 | Complete Media [2, 15]: 1.077 | Difference [2, 16]: −0.27

CC(C)C[C@H](N)C(=O)O [L-Leucine]
Cholesterol-free [1, 17]: 1.354 | Complete [1, 18]: 1.837 | Difference [1, 19]: 0.48 | Cholesterol-free media + simvastatin (0.04 μM) [2, 20]: 1.064 | Complete Media ([2]; drug in complete media): 0.8826 | Difference [2, 7]: −0.18

Angiotensin III (TFA) (RVYIHPF; also: TFA salt; UniProt P01019 26-32, looked up)
Cholesterol-free [1, 4]: 1.338 | Complete ([1]; NCI-H292 cells, complete media): 0.9878 | Difference [1, 19]: −0.35 | Complete Media ([2]; drug in complete media): 0.8125 | Difference [2, 7]: −0.20

CC(C)c1nc(CN(C)C(=O)N[C@H](C(=O)N[C@@H](Cc2ccccc2)C[C@H](O)[C@H](Cc2ccccc2)NC(=O)OCc2cncs2)C(C)C)cs1 [Ritonavir]
Difference [1, 8]: −0.25 | Cholesterol-free [1, 4]: 1.533 | Complete ([1]; NCI-H292 cells, complete media): 1.287 | Cholesterol-free media + simvastatin (0.04 μM) [2, 14]: 1.133 | Complete Media [2, 15]: 0.8233 | Difference [2, 16]: −0.31

CC1(C)S[C@@H]2[C@H](NC(=O)[C@H](NC(=O)N3CCN(S(C)(=O)=O)C3=O)c3ccccc3)C(=O)N2[C@H]1C(=O)[O-].[Na+] [Mezlocillin (sodium)]
Cholesterol-free [1, 17]: 0.8225 | Complete [1, 18]: 1.264 | Difference ([1]; complete vs cholesterol-free media, >0 enhanced anti-cancer activity, about 0 neutral, <0 antagonist): 0.44 | Cholesterol-free media + simvastatin (0.04 μM) [2, 20]: 1.179 | Complete Media ([2]; drug in complete media): 0.9159 | Difference [2, 16]: −0.26

COc1ccc(/C=C/C(=O)Nc2ccccc2C(=O)O)cc1OC [trans-Tranilast]
Difference [1, 3]: −0.10 | Complete [1, 21]: 0.8406 | Cholesterol-free media + simvastatin (0.04 μM) [2, 20]: 1.144 | Complete Media ([2]; drug in complete media): 0.9085 | Difference [2, 7]: −0.24

Clc1ccccc1CN1CCc2sccc2C1 [Ticlopidine (hydrochloride)]
Difference [1, 12]: −0.88 | Cholesterol-free ([1]; NCI-H292 cells in cholesterol-free media without statin): 1.64 | Complete [1, 13]: 0.7613 | Cholesterol-free media + simvastatin (0.04 μM) [2, 9]: 1.416 | Complete Media [2, 10]: 1.478 | Difference [2, 11]: 0.06

Bleomycin (sulfate)
Difference [1, 3]: −0.05 | Cholesterol-free [1, 17]: 0.05041 | Complete [1, 18]: −0.00442 | Cholesterol-free media + simvastatin (0.04 μM) ([2]; cholesterol-free media with simvastatin 0.04 μM, […]): 0.1778 | Complete Media ([2]; complete media, […]): 0.2205 | Difference ([2]; complete media minus cholesterol-free media + simvastatin, […]): 0.04

Cc1oncc1C(=O)Nc1ccc(C(F)(F)F)cc1 [Leflunomide]
Difference ([1]; Complete minus Cholesterol-free, greater than 0 enhanced anti-cancer activity, about 0 neutral, below 0 antagonist): −0.16 | Cholesterol-free ([1]; NCI-H292 cells, FDA drug library screen, cholesterol-free media without statin): 0.8738 | Complete [1, 21]: 0.714 | Cholesterol-free media + simvastatin (0.04 μM) ([2]; cholesterol-free media with simvastatin 0.04 μM, FDA drug library screen (TABLE 2)): 0.9978 | Complete Media ([2]; complete media, FDA drug library screen (TABLE 2)): 0.949 | Difference ([2]; complete media minus cholesterol-free media + simvastatin (0.04 μM), >0 enhanced anti-cancer activity, about 0 neutral, <0 antagonist): −0.05

Clc1ccc(CO/N=C(\Cn2ccnc2)c2ccc(Cl)cc2Cl)c(Cl)c1 [Oxiconazole nitrate]
Difference [1, 8]: 0.00 | Cholesterol-free [1, 17]: 0.7425 | Complete [1, 18]: 0.7401 | Cholesterol-free media + simvastatin (0.04 μM) [2, 5]: 0.3071 | Complete Media [2, 6]: 1.067 | Difference [2, 11]: 0.76
